Test results from PMC6467724 (Journal of medicinal chemistry, 2018).

Key:
[1] = Microsomal stability assay, human liver microsomes; type: in vitro ADME
[2] = mice, oral doses up to 200 mg/kg; cited from earlier work
[3] = PK and tissue distribution assay, single oral dose; type: in vivo, BALB/c mice; settings: Balb/c mice, single oral dose 25 mg/kg
[4] = Microsomal stability assay, mouse liver microsomes; type: in vitro ADME, mouse (male CD-1)
[5] = Microsomal stability assay, rat liver microsomes; type: in vitro ADME, rat (male Sprague-Dawley)
[6] = cited from earlier work
[7] = mice, 40 mg/kg oral dose; cited from earlier work

O=C(N[C@@H](Cn1ccnc1)c1ccc(-c2ccc(F)cc2)cc1F)c1ccc(-c2nnc(-c3ccccc3)o2)cc1 [VFV, (R)-N-(1-(3,4′-difluoro-[1,1′-biphenyl]-4-yl)-2-(1H-imidazol-1-yl)ethyl)-4-(5-phenyl-1,3,4-oxadiazol-2-yl)benzamide, reference compound]
Clint (estimated intrinsic clearance), Human ([1]; human pooled liver microsomes 0.5 mg/mL, 1 μM test compound): 29.9 mL/min/kg body weight | Clhep (hepatic clearance), Human ([1]; predicted from Clint, Qh 21 mL/min/kg): 12.3 mL/min/kg body weight | Acute toxicity [2]: no acute toxicity | Plasma life time (time until the compound becomes undetectable) [3]: >24 h | Clint (estimated intrinsic clearance), Mouse ([4]; mouse pooled liver microsomes 0.5 mg/mL, 1 μM test compound): 145 mL/min/kg body weight | Clhep (hepatic clearance), Mouse ([4]; predicted from Clint, Qh 90 mL/min/kg): 55.6 mL/min/kg body weight | Clhep (hepatic clearance), Rat ([5]; predicted from Clint, Qh 70 mL/min/kg): 14.2 mL/min/kg body weight | Clint (estimated intrinsic clearance), Rat ([5]; rat pooled liver microsomes 0.5 mg/mL, 1 μM test compound): 17.7 mL/min/kg body weight

O=C(N[C@@H](Cn1ccnc1)c1ccc(Cl)cc1Cl)c1ccc(-c2nnc(-c3ccccc3)o2)cc1 [VNI, (R)-N-(1-(2,4-dichlorophenyl)-2-(1H-imidazol-1-yl)ethyl)-4-(5-phenyl-1,3,4-oxadiazol-2-yl)benzamide]
Acute toxicity [2]: no acute toxicity

CC[C@@H]([C@H](C)O)n1ncn(-c2ccc(N3CCN(c4ccc(OC[C@@H]5CO[C@@](Cn6cncn6)(c6ccc(F)cc6F)C5)cc4)CC3)cc2)c1=O [posaconazole]
Maximal concentration detected in humans, fold lower than in mice [6]: 5 to 10 fold | Maximal reported plasma concentration [7]: 6 µM
